Experimental data as given in US20050287203A1, “Formulation comprising testosteron undecanoate and castor oil” (priority 2002, published 2005).

Experiment: concentration of TU attainable in castor oil solution
Type: physicochemical
Settings: liquid carrier castor oil
Protocol: The choice of castor oil as the liquid carrier, in conjunction with the choice of testosterone undecanoate as the androgen, makes for a solution which can comprise about 200-250 mg of TU per ml. This amounts to approximately […] of testosterone per ml. This is a novel achievement for any orally administerable solution of testosterone in any form. The invention, in one aspect, therefore includes a pharmaceutical formulation in the form of a capsule for oral administration comprising testosterone undecanoate as the active ingredient dissolved in a pharmaceutically acceptable liquid carrier in a concentration of 200-250 mg/ml.

CCCCCCCCCCC(=O)O[C@H]1CC[C@H]2[C@@H]3CCC4=CC(=O)CC[C@]4(C)[C@H]3CC[C@]12C [testosterone undecanoate]
amount of TU the solution in castor oil can comprise: 200-250 mg of TU per ml
